Patent publication US6017947A, “Heterocyclic carbodithioperoxyimidic compounds useful for the inhibition of the replication of HIV” (priority 1999, dated 2000)
Where “and” joins values, the source holds several entries; their conditions need not be identical. Equal values may be shown once.

Tests used:
[1] = system: HIV-1(IIIB); test: Inhibition of HIV-1 induced syncytium formation in CEM cells, HIV-1(IIIB) (WT); assay type: cell-based; details: day 4 post infection
Source text: Cells and Viruses CEM cells were obtained from the […] (Rockville, Md.). HIV-l(IIIB) was originally obtained from the culture supernatant of persistently HIV-1-infected H9 cells and was provided by R. C. Gallo and M. Popovic (National Cancer Institute, National Institutes of Health, Bethesda, Md.).
(§1) CEM cells were suspended at ≈300,000 cells per ml of culture medium and infected with approximately 100 CCID50 (CCID50 being the 50% cell culture infective dose) of HIV-1(IIIB) (designated as "WT" in Table 3) or one of the HIV-1 RT mutant strains described above. Then 100 μl of the infected cell suspensions was added to 200 μl microtiter plate wells containing 100 μl of appropriate serial (5-fold) dilutions of the test compounds. The inhibitiory effect of the test compounds on HIV-1 induced syncytium formation in CEM cells was examined microscopically on day 4 post infection. The 50% effective concentration (EC50) was defined as the test compound concentration that inhibits syncytium formation in the HIV-1-infected cell cultures by 50%.

[2] = system: HIV-1/100-Ile; test: Inhibition of HIV-1 induced syncytium formation in CEM cells, RT mutant 100-Ile; assay type: cell-based; details: Human immunodeficiency virus 1, CCRF-CEM, 96 h
Source text: (§2) The selection and characterization of the HIV-1 RT mutant strains were done as follows: HIV-1/100-Ile ("100-Ile") was selected for resistance against TIBO R82150 as described in Balzarini et al, Virology 192: 246-253 (1993); HIV-1/103-Asn ("103-Asn") was selected for resistance against TIBO R82913 as described in Balzarini et al, Virology 192: 246-253 (1993); HIV-1/106-Ala ("106-Ala") was selected for resistance against nevirapine as described in Balzarini et al, J. Virol. 67: 5353-5359 (1993); HIV-1/Lys-138 ("ys-138") was selected for resistance against TSAO-m^3 T as described in Balzarini et al, Virology 192: 246-253 (1993) and Balzarini et al, Proc. Nat. Acad. Sci. USA 90: 6952-6956 (1993); HIV-1/181-Cys ("181-Cys") was selected for resistance against pyridinone L-697,661 as described in Balzarini et al, Virology 192: 246-253 (1993); and HIV-1/188-His ("188-His") was selected for resistance against HEPT as described in Balzarini et al, Mol. Pharmocol. 44: 694-701 (1993). 188-His was then further converted to HIV-1/188-Leu("188-Leu") upon further passage in cell culture in the absence of the HEPT. HIV-1/101-Glu ("101-Glu") and HIV-1/190-Glu ("190-Glu") were selected for resistance against the thiocarboxanilide derivative designated as UC38 as described in Balzarini et al, Antiviral Research 27: 219-236 (1995). HIV-1/184-Ile ("184-Ile") was selected for resistance against the combination of 3TC and TSAO-m^3 T as described in Balzarini et al, Molecular Pharm. 49: 882-890 (1996). HIV-1/184-Val ("184-Val") was selected for resistance against 3TC as described in Balzarini et al, Molecular Pharm. 49: 882-890 (1996).
as §1

[3] = system: HIV-1/101-Glu; test: Inhibition of HIV-1 induced syncytium formation in CEM cells, RT mutant 101-Glu; assay type: cell-based; details: Human immunodeficiency virus 1, CCRF-CEM, 96 h
Source text: as §2, §1

[4] = system: HIV-1/103-Asn; test: Inhibition of HIV-1 induced syncytium formation in CEM cells, RT mutant 103-Asn; assay type: cell-based; details: Human immunodeficiency virus 1, CCRF-CEM, 96 h
Source text: as §2, §1

[5] = system: HIV-1/106-Ala; test: Inhibition of HIV-1 induced syncytium formation in CEM cells, RT mutant 106-Ala; assay type: cell-based; details: Human immunodeficiency virus 1, CCRF-CEM, 96 h
Source text: as §2, §1

[6] = system: HIV-1/Lys-138; test: Inhibition of HIV-1 induced syncytium formation in CEM cells, RT mutant 138-Lys; assay type: cell-based; details: Human immunodeficiency virus 1, CCRF-CEM, 96 h
Source text: as §2, §1

[7] = system: HIV-1/181-Cys; test: Inhibition of HIV-1 induced syncytium formation in CEM cells, RT mutant 181-Cys; assay type: cell-based; details: Human immunodeficiency virus 1, CCRF-CEM, 96 h
Source text: as §2, §1

[8] = system: HIV-1/184-Ile; test: Inhibition of HIV-1 induced syncytium formation in CEM cells, RT mutant 184-Ile; assay type: cell-based; details: Human immunodeficiency virus 1, CCRF-CEM, 96 h
Source text: as §2, §1

[9] = system: HIV-1/184-Val; test: Inhibition of HIV-1 induced syncytium formation in CEM cells, RT mutant 184-Val; assay type: cell-based; details: Human immunodeficiency virus 1, CCRF-CEM, 96 h
Source text: as §2, §1

[10] = system: HIV-1/188-His; test: Inhibition of HIV-1 induced syncytium formation in CEM cells, RT mutant 188-His; assay type: cell-based; details: Human immunodeficiency virus 1, CCRF-CEM, 96 h
Source text: as §2, §1

[11] = system: HIV-1/188-Leu; test: Inhibition of HIV-1 induced syncytium formation in CEM cells, RT mutant 188-Leu; assay type: cell-based; details: Human immunodeficiency virus 1, CCRF-CEM, 96 h
Source text: as §2, §1

[12] = system: HIV-1/190-Glu; test: Inhibition of HIV-1 induced syncytium formation in CEM cells, RT mutant 190-Glu; assay type: cell-based; details: Human immunodeficiency virus 1, CCRF-CEM, 96 h
Source text: as §2, §1

[13] = system: HIV-1 strains containing the 100 Leu→Ile mutation in their RT; details: cited from earlier work
[14] = system: 181 Tyr→Cys mutation in the RT of HIV-1 strains; details: cited from earlier work
[15] = Table 2, HIV-1(IIIB), repeat values
[16] = Human immunodeficiency virus 1, IIIB, CCRF-CEM, 96 h, Table 2, HIV-1(IIIB), repeat values
[17] = Human immunodeficiency virus 1, IIIB, CCRF-CEM, 96 h, Table 3, WT (HIV-1(IIIB))

SMILES | EC50 [1, 15] | EC50 [1, 16] | EC50 [1, 17] | EC50 [2] | EC50 [3] | EC50 [4] | EC50 [5] | EC50 [6] | EC50 [7] | EC50 [8] | EC50 [9] | EC50 [10] | EC50 [11] | EC50 [12] | resistance of the mutant strain to the compound [13] | resistance of the mutant strain to the compound [14]
CSSC(=Nc1ccc(Cl)c(OCCC(C)C)c1)c1ccsc1C [Compound 1, N-[4-chloro-3-(3-methylbutoxy)-phenyl]-2-methyl-3-thiophenecarbodithioperoxyimidic acid methyl ester] | 104 nM and 186 nM | – | – | – | – | – | – | – | – | – | – | – | – | – | – | –
CSSC(=Nc1ccc(Cl)c(C=NOC(C)(C)C)c1)c1ccoc1C [Compound 3] | 121 nM | 128 nM | 0.018 µg/mL | 0.47 µg/mL | 0.14 µg/mL | 1.33 µg/mL | 0.18 µg/mL | 0.1 µg/mL | 0.1 µg/mL | 0.03 µg/mL | 0.12 µg/mL | 0.8 µg/mL | 1.35 µg/mL | > 2 µg/mL | – | –
CSSC(=Nc1ccc(Cl)c(OCC=C(C)C)c1)c1ccoc1C [Compound 4] | – | – | 0.0018 µg/mL | 0.053 µg/mL | 0.027 µg/mL | 0.15 µg/mL | 0.018 µg/mL | 0.008 µg/mL | 0.08 µg/mL | 0.0032 µg/mL | 0.0015 µg/mL | 0.85 µg/mL | 0.58 µg/mL | > 2 µg/mL | – | –
CSSC(=Nc1ccc(Cl)c(C=NOC(C)C)c1)c1ccoc1C [Compound 5, N-[4-chloro-3-[[(1-methylethoxy)imino]-methyl]phenyl]-2-methyl-3-furancarbodithioperoxyimidic acid methyl ester] | 43.1 nM | 73.2 nM | 0.0075 µg/mL | 0.25 µg/mL | 0.13 µg/mL | 0.85 µg/mL | 0.1 µg/mL | 0.1 µg/mL | 0.18 µg/mL | 0.013 µg/mL | 0.0075 µg/mL | 0.7 µg/mL | 0.95 µg/mL | > 2 µg/mL | – | –
CSSC(=Nc1ccc(Cl)c(OCCC(C)C)c1)c1ccoc1C [Compound 6] | 80.4 nM | 83.7 nM | 0.012 µg/mL | 0.25 µg/mL | 0.13 µg/mL | 0.65 µg/mL | 0.13 µg/mL | 0.15 µg/mL | 0.29 µg/mL | 0.02 µg/mL | 0.008 µg/mL | ≥ 2 µg/mL | > 2 µg/mL | > 2 µg/mL | – | –
CSSC(=Nc1ccc(Cl)c(COc2ccccc2Cl)c1)c1ccoc1C [Compound 7] | 53.3 nM | 48.6 nM | 0.0075 µg/mL | 0.93 µg/mL | 0.34 µg/mL | ≥ 2 µg/mL | 0.55 µg/mL | 0.13 µg/mL | 0.47 µg/mL | 0.02 µg/mL | 0.009 µg/mL | 0.65 µg/mL | 0.7 µg/mL | > 2 µg/mL | – | –
Cc1occc1C(=Nc1ccc(Cl)c(C=NOC(C)(C)C)c1)SSc1ccccc1 [Compound 8] | 83.2 nM | 156 nM | 0.03 µg/mL | 0.65 µg/mL | 0.2 µg/mL | ≥ 2 µg/mL | 0.7 µg/mL | 0.18 µg/mL | 0.23 µg/mL | 0.03 µg/mL | 0.018 µg/mL | ≥ 2 µg/mL | > 2 µg/mL | > 2 µg/mL | – | –
CSSC(=Nc1ccc(Cl)c(OCC=C(C)C)c1)c1cc(C)oc1C [Compound 9, N-[4-chloro-3-[(3-methyl-2-butenyl)oxy]phenyl]-2,5-dimethyl-3-furancarbodithioperoxyimidic acid methyl ester] | 66.9 nM | 65 nM | 0.0097 µg/mL | ≥ 2 µg/mL | 0.28 µg/mL | ≥ 2 µg/mL | 0.2 µg/mL | 0.09 µg/mL | 0.7 µg/mL | 0.05 µg/mL | 0.009 µg/mL | ≥ 2 µg/mL | ≥ 2 µg/mL | > 2 µg/mL | – | –
CC(C)=CCOc1cc(N=C(SSc2ccccc2)c2ccoc2C)ccc1Cl [Compound 10] | – | – | 0.05 µg/mL | 1.5 µg/mL | 0.2 µg/mL | ≥ 2 µg/mL | 0.5 µg/mL | 0.23 µg/mL | ≥ 2 µg/mL | 0.09 µg/mL | 0.053 µg/mL | ≥ 2 µg/mL | > 2 µg/mL | > 2 µg/mL | – | –
CC(C)=CCOc1cc(N=C(SN2CCOCC2)c2ccoc2C)ccc1Cl [Compound 11] | 12.4 nM | 16.3 nM | – | – | – | – | – | – | – | – | – | – | – | – | – | –
CC(C)=CCN1Cc2cccc3[nH]c(=S)n(c23)C[C@@H]1C [Compound R82150] | – | – | – | – | – | – | – | – | – | – | – | – | – | – | resistant | –
CC(C)=CCN1Cc2cc(Cl)cc3[nH]c(=S)n(c23)C[C@@H]1C [TIBO R82913] | – | – | – | – | – | – | – | – | – | – | – | – | – | – | resistant | –
Cc1ccnc2c1NC(=O)c1cccnc1N2C1CC1 [nevirapine] | – | – | – | – | – | – | – | – | – | – | – | – | – | – | – | resistant
